Measurements from patent publication US20240409585A1, “MACROCYCLIC IMMUNOMODULATORS” (priority 2021, published 2024).
Numbered stars: 1 amine (or outer) side, 2 acyl side, 3 side chain; on linkers, the order of the positions; unused ones are H or OH. Bridge positions count the residues as written; N and C are the ends. Square brackets hold non-standard residues; d marks the D form. Peptide text beside a SMILES is read from it. * marks the point of attachment. ξ: configuration not given here. Gly(1-amidinopiperidin-4-yl) = N=C(N)N1CCC([C@H](N)C(=O)O)CC1; Ala(indol-4-yl) = N[C@@H](Cc1cccc2[nH]ccc12)C(=O)O; Phe(4-CH2NH2) = NCc1ccc(C[C@H](N)C(=O)O)cc1; Bip = N[C@@H](Cc1ccc(-c2ccccc2)cc1)C(=O)O; Lys(Me3) = C[N+](C)(C)CCCC[C@H](N)C(=O)O; Phe(3-Me) = Cc1cccc(C[C@H](N)C(=O)O)c1; X41 = O=C([C@H](CC1CCCNC1)N[*:1])[*:2]; Lys(Me2) = CN(C)CCCC[C@H](N)C(=O)O; 3Pal = N[C@@H](Cc1cccnc1)C(=O)O; 4Pal = N[C@@H](Cc1ccncc1)C(=O)O; Cha = N[C@@H](CC1CCCCC1)C(=O)O; Ile(3ξ) = CCC(C)[C@H](N)C(=O)O; Thr(3ξ) = CC(O)[C@H](N)C(=O)O; Carboxymethyl = O=C(O)C*; NMeA = CN[C@@H](C)C(=O)O; Dab = NCC[C@H](N)C(=O)O; ξC = NC(CS)C(=O)O

What follows are compounds tested against T1, PE-labeled human PD-L1-Ig binding to Jurkat cell line over-expressing human PD-1 (Jurkat-PD-1) (Homo sapiens, UniProt Q15116) (assay: Jurkat-PD-1 Cell Binding High-Content Screening Assay (CBA): Method 1). Conditions: Jurkat-hPD-1 cells, PE-labeled PD-L1-Ig 20 nM final; read-out: Jurkat HPDL1 PD1 IC50 (uM) (Method 1).
T1 construct: expressed in transfected cells; host or cells: Jurkat
T1 sequence (Q15116 25-288): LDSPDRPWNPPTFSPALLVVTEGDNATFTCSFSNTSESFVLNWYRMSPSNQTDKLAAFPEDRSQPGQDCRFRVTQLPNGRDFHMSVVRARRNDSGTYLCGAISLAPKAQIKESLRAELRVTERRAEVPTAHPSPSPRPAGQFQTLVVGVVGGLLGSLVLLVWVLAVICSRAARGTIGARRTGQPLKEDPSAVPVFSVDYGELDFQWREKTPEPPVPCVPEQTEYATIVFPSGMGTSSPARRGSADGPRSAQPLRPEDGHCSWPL

IC50	SMILES
0.01 µM	CCC(C)[C@@H]1NC(=O)[C@H](Cc2ccc(-c3ccccc3)cc2)NC(=O)[C@H](C(C)C)NC(=O)[C@H](Cc2c[nH]c3ccccc23)NC(=O)[C@H](CC(=O)O)NC(=O)[C@H](Cc2ccc(O)cc2)NC(=O)[C@H](CC2CCCNC2)NC(=O)CSC[C@@H](C(=O)N[C@@H](C)C(N)=O)NC(=O)[C@H](C(C)O)NC(=O)[C@H](C(C)C)NC(=O)[C@H](CC2CCCCC2)NC(=O)[C@H](CCN)NC(=O)[C@@H](CC(C)C)NC(=O)[C@H](C)N(C)C1=O (stereo partly drawn) [Compound 2051] ({CH2CO}-[X41]YDWV[Bip][Ile(3ξ)][NMeA][dL][Dab][Cha]V[Thr(3ξ)]CA-NH2; thioether N-14)
0.02 µM	CCC(C)[C@@H]1NC(=O)[C@H](Cc2ccc(-c3ccccc3)cc2)NC(=O)[C@H](C(C)C)NC(=O)[C@H](Cc2c[nH]c3ccccc23)NC(=O)[C@H](CC(=O)O)NC(=O)[C@H](Cc2ccc(O)cc2)NC(=O)[C@H](Cc2cccnc2)NC(=O)CSC[C@@H](C(=O)N[C@@H](C)C(N)=O)NC(=O)[C@H](C(C)O)NC(=O)[C@H](C(C)C)NC(=O)[C@H](CC2CCCCC2)NC(=O)[C@H](CCN)NC(=O)[C@@H](CC(C)C)NC(=O)[C@H](C)N(C)C1=O (stereo partly drawn) [Compound 2052] ({CH2CO}-[3Pal]YDWV[Bip][Ile(3ξ)][NMeA][dL][Dab][Cha]V[Thr(3ξ)]CA-NH2; thioether N-14)
0.03 µM	CCC(C)[C@@H]1NC(=O)[C@H](Cc2ccc(-c3ccccc3)cc2)NC(=O)[C@H](C(C)C)NC(=O)[C@H](Cc2c[nH]c3ccccc23)NC(=O)[C@H](CC(=O)O)NC(=O)[C@H](Cc2ccc(O)cc2)NC(=O)[C@H](Cc2cccc3[nH]ccc23)NC(=O)CSC[C@@H](C(=O)N[C@@H](C)C(N)=O)NC(=O)[C@H](C(C)O)NC(=O)[C@H](C(C)C)NC(=O)[C@H](CC2CCCCC2)NC(=O)[C@H](CCN)NC(=O)[C@@H](CC(C)C)NC(=O)[C@H](C)N(C)C1=O (stereo partly drawn) [Compound 2053] ({CH2CO}-[Ala(indol-4-yl)]YDWV[Bip][Ile(3ξ)][NMeA][dL][Dab][Cha]V[Thr(3ξ)]CA-NH2; thioether N-14)
0.02 µM	CCC(C)[C@@H]1NC(=O)[C@H](Cc2ccc(-c3ccccc3)cc2)NC(=O)[C@H](C(C)C)NC(=O)[C@H](Cc2c[nH]c3ccccc23)NC(=O)[C@H](CC(=O)O)NC(=O)[C@H](Cc2ccc(O)cc2)NC(=O)[C@H](C2CCN(C(=N)N)CC2)NC(=O)CSC[C@@H](C(=O)N[C@@H](C)C(N)=O)NC(=O)[C@H](C(C)O)NC(=O)[C@H](C(C)C)NC(=O)[C@H](CC2CCCCC2)NC(=O)[C@H](CCN)NC(=O)[C@@H](CC(C)C)NC(=O)[C@H](C)N(C)C1=O (stereo partly drawn) [Compound 2054] ({CH2CO}-[Gly(1-amidinopiperidin-4-yl)]YDWV[Bip][Ile(3ξ)][NMeA][dL][Dab][Cha]V[Thr(3ξ)]CA-NH2; thioether N-14)
0.95 µM	CCC(C)[C@@H]1NC(=O)[C@H](Cc2ccc(-c3ccccc3)cc2)NC(=O)[C@H](C(C)C)NC(=O)[C@H](Cc2c[nH]c3ccccc23)NC(=O)[C@H](CC(N)=O)NC(=O)[C@H](Cc2ccc(OCC(=O)O)cc2)NC(=O)[C@H](Cc2ccncc2)NC(=O)CSC[C@@H](C(=O)N[C@@H](CCCCN)C(N)=O)NC(=O)[C@H](C(C)O)NC(=O)[C@H](C(C)C)NC(=O)[C@H](CC(C)C)NC(=O)[C@H](CC(N)=O)NC(=O)[C@@H](CC(C)C)NC(=O)[C@H](C)N(C)C1=O (stereo partly drawn) [Compound 2055] ({CH2CO}-[4Pal]Y(Carboxymethyl)NWV[Bip][Ile(3ξ)][NMeA][dL]NLV[Thr(3ξ)]CK-NH2; thioether N-14)
0.04 µM	CC(C)C[C@@H]1NC(=O)[C@H](CCN)NC(=O)[C@@H](CC(C)C)NC(=O)[C@H](C)N(C)C(=O)[C@H](CCC(=O)O)NC(=O)[C@H](Cc2ccc(-c3ccccc3)cc2)NC(=O)[C@H](C(C)C)NC(=O)[C@H](Cc2c[nH]c3ccccc23)NC(=O)[C@H](CC(N)=O)NC(=O)[C@H](Cc2ccc(O)cc2)NC(=O)[C@H](Cc2ccncc2)NC(=O)CSC[C@@H](C(=O)N[C@@H](C)C(N)=O)NC(=O)[C@H](C(C)O)NC(=O)[C@H](C(C)C)NC1=O (stereo partly drawn) [Compound 2056] ({CH2CO}-[4Pal]YNWV[Bip]E[NMeA][dL][Dab]LV[Thr(3ξ)]CA-NH2; thioether N-14)
0.04 µM	CC(C)C[C@@H]1NC(=O)[C@H](CCCCN)NC(=O)[C@@H](CC(C)C)NC(=O)[C@H](C)N(C)C(=O)[C@H](CCC(=O)O)NC(=O)[C@H](Cc2ccc(-c3ccccc3)cc2)NC(=O)[C@H](C(C)C)NC(=O)[C@H](Cc2c[nH]c3ccccc23)NC(=O)[C@H](CC(=O)O)NC(=O)[C@H](Cc2ccc(O)cc2)NC(=O)[C@H](Cc2ccncc2)NC(=O)CSC[C@@H](C(=O)N[C@@H](C)C(N)=O)NC(=O)[C@H](C(C)O)NC(=O)[C@H](C(C)C)NC1=O (stereo partly drawn) [Compound 2057] ({CH2CO}-[4Pal]YDWV[Bip]E[NMeA][dL]KLV[Thr(3ξ)]CA-NH2; thioether N-14)
0.04 µM	CC(C)C[C@@H]1NC(=O)[C@H](CCC(=O)O)NC(=O)[C@@H](CC(C)C)NC(=O)[C@H](C)N(C)C(=O)[C@H](CCCCN)NC(=O)[C@H](Cc2ccc(-c3ccccc3)cc2)NC(=O)[C@H](C(C)C)NC(=O)[C@H](Cc2c[nH]c3ccccc23)NC(=O)[C@H](CC(=O)O)NC(=O)[C@H](Cc2ccc(O)cc2)NC(=O)[C@H](Cc2ccncc2)NC(=O)CSC[C@@H](C(=O)N[C@@H](C)C(N)=O)NC(=O)[C@H](C(C)O)NC(=O)[C@H](C(C)C)NC1=O (stereo partly drawn) [Compound 2058] ({CH2CO}-[4Pal]YDWV[Bip]K[NMeA][dL]ELV[Thr(3ξ)]CA-NH2; thioether N-14)
0.74 µM	CCC(C)[C@@H]1NC(=O)[C@H](Cc2ccc(-c3ccccc3)cc2)NC(=O)[C@H](CCC(=O)O)NC(=O)[C@H](Cc2c[nH]c3ccccc23)NC(=O)[C@H](CC(N)=O)NC(=O)[C@H](Cc2ccc(O)cc2)NC(=O)[C@H](Cc2ccncc2)NC(=O)CSC[C@@H](C(=O)N[C@@H](C)C(N)=O)NC(=O)[C@H](C(C)O)NC(=O)[C@H](CCN)NC(=O)[C@H](CC(C)C)NC(=O)[C@H](CC(N)=O)NC(=O)[C@@H](CC(C)C)NC(=O)[C@H](C)N(C)C1=O (stereo partly drawn) [Compound 2059] ({CH2CO}-[4Pal]YNWE[Bip][Ile(3ξ)][NMeA][dL]NL[Dab][Thr(3ξ)]CA-NH2; thioether N-14)
0.28 µM	CCC(C)[C@@H]1NC(=O)[C@H](Cc2ccc(-c3ccccc3)cc2)NC(=O)[C@H](C(C)C)NC(=O)[C@H](Cc2c[nH]c3ccccc23)NC(=O)[C@H](CC(=O)O)NC(=O)[C@H](Cc2ccc(O)cc2)NC(=O)[C@H](Cc2ccncc2)NC(=O)CSC[C@@H](C(=O)N[C@@H](C)C(N)=O)NC(=O)[C@H](C(C)O)NC(=O)[C@H](CCN)NC(=O)[C@H](CC(C)C)NC(=O)[C@H](CC(N)=O)NC(=O)[C@@H](CC(C)C)NC(=O)[C@H](C)N(C)C1=O (stereo partly drawn) [Compound 2060] ({CH2CO}-[4Pal]YDWV[Bip][Ile(3ξ)][NMeA][dL]NL[Dab][Thr(3ξ)]CA-NH2; thioether N-14)
0.01 µM	CCC(C)[C@@H]1NC(=O)[C@H](Cc2ccc(-c3ccccc3)cc2)NC(=O)[C@H](C(C)C)NC(=O)[C@H](Cc2c[nH]c3ccccc23)NC(=O)[C@H](CC(=O)O)NC(=O)[C@H](Cc2ccc(O)cc2)NC(=O)[C@H](CC(N)=O)NC(=O)CSC[C@@H](C(=O)N[C@@H](C)C(N)=O)NC(=O)[C@H](C(C)O)NC(=O)[C@H](C(C)C)NC(=O)[C@H](CC2CCCCC2)NC(=O)[C@H](CCN)NC(=O)[C@@H](CC(C)C)NC(=O)[C@H](C)N(C)C1=O (stereo partly drawn) [Compound 2061] ({CH2CO}-NYDWV[Bip][Ile(3ξ)][NMeA][dL][Dab][Cha]V[Thr(3ξ)]CA-NH2; thioether N-14)
0.02 µM	CCC(C)[C@@H]1NC(=O)[C@H](Cc2ccc(-c3ccccc3)cc2)NC(=O)[C@H](C(C)C)NC(=O)[C@H](Cc2c[nH]c3ccccc23)NC(=O)[C@H](CC(=O)O)NC(=O)[C@H](Cc2ccc(O)cc2)NC(=O)[C@H](Cc2ccc(CN)cc2)NC(=O)CSC[C@@H](C(=O)N[C@@H](C)C(N)=O)NC(=O)[C@H](C(C)O)NC(=O)[C@H](C(C)C)NC(=O)[C@H](CC2CCCCC2)NC(=O)[C@H](CCN)NC(=O)[C@@H](CC(C)C)NC(=O)[C@H](C)N(C)C1=O (stereo partly drawn) [Compound 2062] ({CH2CO}-[Phe(4-CH2NH2)]YDWV[Bip][Ile(3ξ)][NMeA][dL][Dab][Cha]V[Thr(3ξ)]CA-NH2; thioether N-14)
0.05 µM	CCC(C)[C@@H]1NC(=O)[C@H](Cc2ccc(-c3ccccc3)cc2)NC(=O)[C@H](C(C)C)NC(=O)[C@H](Cc2cccc(C)c2)NC(=O)[C@H](CC(=O)O)NC(=O)[C@H](Cc2ccc(OCC(=O)O)cc2)NC(=O)[C@H](CCCCN(C)C)NC(=O)CSCC(C(=O)NCC(N)=O)NC(=O)[C@H](CO)NC(=O)[C@H](C(C)C)NC(=O)[C@H](CC(C)C)NC(=O)[C@H](CC(N)=O)NC(=O)[C@@H](CC(C)C)NC(=O)[C@H](C)N(C)C1=O (stereo partly drawn) [Compound 2063] ({CH2CO}-[Lys(Me2)]Y(Carboxymethyl)D[Phe(3-Me)]V[Bip][Ile(3ξ)][NMeA][dL]NLVS[ξC]G-NH2; thioether N-14)
0.04 µM	CCC(C)[C@@H]1NC(=O)[C@H](Cc2ccc(-c3ccccc3)cc2)NC(=O)[C@H](C(C)C)NC(=O)[C@H](Cc2cccc(C)c2)NC(=O)[C@H](CC(=O)O)NC(=O)[C@H](Cc2ccc(OCC(=O)O)cc2)NC(=O)[C@H](CCCC[N+](C)(C)C)NC(=O)CSCC(C(=O)NCC(N)=O)NC(=O)[C@H](CO)NC(=O)[C@H](C(C)C)NC(=O)[C@H](CC(C)C)NC(=O)[C@H](CC(N)=O)NC(=O)[C@@H](CC(C)C)NC(=O)[C@H](C)N(C)C1=O (stereo partly drawn) [Compound 2064] ({CH2CO}-[Lys(Me3)]Y(Carboxymethyl)D[Phe(3-Me)]V[Bip][Ile(3ξ)][NMeA][dL]NLVS[ξC]G-NH2; thioether N-14)
0.35 µM	CCC(C)[C@@H]1NC(=O)[C@H](Cc2ccc(-c3ccccc3)cc2)NC(=O)[C@H](C(C)C)NC(=O)[C@H](Cc2c[nH]c3ccccc23)NC(=O)[C@H](CC(N)=O)NC(=O)[C@H](Cc2ccc(O)cc2)NC(=O)[C@H](CC(N)=O)NC(=O)CSCC(C(=O)NCC(N)=O)NC(=O)[C@H](C(C)O)NC(=O)[C@H](C(C)C)NC(=O)[C@H](CC2CCCCC2)NC(=O)[C@H](CC(N)=O)NC(=O)[C@@H](CC(C)C)NC(=O)[C@H](C)N(C)C1=O (stereo partly drawn) [Compound 2066] ({CH2CO}-NYNWV[Bip][Ile(3ξ)][NMeA][dL]N[Cha]V[Thr(3ξ)][ξC]G-NH2; thioether N-14)
